The values below come from PMC11750938, “Self-sufficient biocatalytic cascade for the continuous synthesis of danshensu in flow” (Applied Microbiology and Biotechnology, 2025).

The assay deals with T1, MpHPPR (hydroxyphenylpyruvate reductase from Mentha x piperita) (Mentha x piperita, UniProt A0A2R4SEK0).
T1 construct: codon-optimised synthetic gene in pET15b, N-terminal His-tag, expressed in E. coli BL21(DE3) Star, Ni-NTA purified, dimer
T1 sequence (A0A2R4SEK0 1-313): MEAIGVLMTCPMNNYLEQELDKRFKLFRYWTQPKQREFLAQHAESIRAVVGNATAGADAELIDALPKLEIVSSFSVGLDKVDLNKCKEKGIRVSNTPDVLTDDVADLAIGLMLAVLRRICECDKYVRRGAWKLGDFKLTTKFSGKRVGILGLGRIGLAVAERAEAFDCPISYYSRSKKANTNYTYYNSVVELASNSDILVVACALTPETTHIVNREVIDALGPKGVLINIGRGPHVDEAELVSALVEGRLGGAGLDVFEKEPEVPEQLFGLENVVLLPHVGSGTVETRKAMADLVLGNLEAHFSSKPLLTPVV
Description: HPLC product quantification. The assay is classed as biochemical. The settings on record: pH 7.0, 100 mM potassium phosphate, 37 °C, 10 mM NAD(P)H, 5 mM ß-mercaptoethanol.

Turning to `O=C(O)C(=O)Cc1ccc(O)cc1` [HPPA, 3-(4-Hydroxyphenyl)−2-oxopropanoic acid], the KM entry was “Specific activity and KM for phenylpyruvic acid (PPA), 4-hydroxyphenylpyruvic acid (HPPA)”.

In the case of `O=C(O)C(=O)Cc1ccccc1` [PPA, phenylpyruvic acid], the KM entry is “Specific activity and KM for phenylpyruvic acid (PPA)”.
